Data on 17 molecules can be found in ChEMBL document CHEMBL1137723, “Non-imidazole histamine H3 ligands, part IV: SAR of 1-[2-thiazol-5-yl-(2-aminoethyl)]-4-n-propylpiperazine derivatives” (Eur J Med Chem, 2009).

Where only a bound is given, the exact number is not on record here.

The target of one experiment is Histamine H3 receptor (Cavia porcellus, UniProt Q9JI35). As to the kind of experiment: Antagonist activity at histamine H3 receptor in guinea pig jejunum assessed as electrically evoked contractions. The conditions noted are these: read-out: pA2 (converted). The experiment is classed as functional, tissue-based.
Chain of Histamine H3 receptor (Q9JI35 whole entry): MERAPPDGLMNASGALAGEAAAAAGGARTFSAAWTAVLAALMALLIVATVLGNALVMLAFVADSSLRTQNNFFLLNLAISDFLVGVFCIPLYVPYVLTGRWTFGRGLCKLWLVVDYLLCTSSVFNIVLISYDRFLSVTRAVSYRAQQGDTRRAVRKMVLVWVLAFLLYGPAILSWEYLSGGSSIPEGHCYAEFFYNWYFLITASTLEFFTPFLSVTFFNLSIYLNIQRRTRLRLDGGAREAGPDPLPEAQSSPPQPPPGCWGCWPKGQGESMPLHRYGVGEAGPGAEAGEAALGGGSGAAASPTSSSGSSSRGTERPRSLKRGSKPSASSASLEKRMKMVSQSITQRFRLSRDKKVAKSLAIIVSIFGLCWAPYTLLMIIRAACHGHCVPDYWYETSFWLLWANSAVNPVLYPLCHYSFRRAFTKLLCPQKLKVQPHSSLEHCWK
The target of a further experiment is Histamine H1 receptor (Cavia porcellus, UniProt P31389). As to the kind of experiment: Antagonist activity at histamine H1 receptor in guinea pig ileum assessed as histamine-induced contractions. The experiment is classed as functional, tissue-based. To be noted: read-out: pA2 (converted).
Chain of Histamine H1 receptor (P31389 whole entry): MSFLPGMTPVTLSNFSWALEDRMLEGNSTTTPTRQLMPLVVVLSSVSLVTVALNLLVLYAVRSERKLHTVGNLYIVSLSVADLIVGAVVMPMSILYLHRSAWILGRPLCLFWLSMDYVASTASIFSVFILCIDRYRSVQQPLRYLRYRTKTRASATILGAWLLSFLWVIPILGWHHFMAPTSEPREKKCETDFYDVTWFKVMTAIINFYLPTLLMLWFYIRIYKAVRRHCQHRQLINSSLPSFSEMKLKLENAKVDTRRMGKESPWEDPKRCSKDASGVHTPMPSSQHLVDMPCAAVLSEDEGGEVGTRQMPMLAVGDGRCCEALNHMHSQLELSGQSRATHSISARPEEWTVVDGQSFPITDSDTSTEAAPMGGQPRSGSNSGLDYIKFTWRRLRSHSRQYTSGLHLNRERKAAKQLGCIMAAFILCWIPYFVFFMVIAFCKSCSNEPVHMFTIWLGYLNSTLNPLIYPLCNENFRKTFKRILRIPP

Take `CCCN1CCN(c2ncc(CCN(C)C=O)s2)CC1`: the Kb on Histamine H3 receptor is 55 nM.
Turning to `CCCN1CCN(c2ncc(CCN(C)C(=O)CC)s2)CC1`, the Kb at Histamine H3 receptor is 43.7 nM.
As to `CCCCC(=O)N(C)CCc1cnc(N2CCN(CCC)CC2)s1`, on Histamine H3 receptor, the Kb was 95.5 nM.
Regarding `CCCN(C)CCc1cnc(N2CCN(CCC)CC2)s1`, the Kb on Histamine H1 receptor is more than 100000 nM; at Histamine H3 receptor, 29.5 nM.
As to `S=C(NC1CCCCC1)N1CCC(c2cnc[nH]2)CC1` [THIOPERAMIDE], the Kb on Histamine H3 receptor is 0.871 nM.
For `CCCN1CCN(c2ncc(CCN(C)Cc3ccccc3)s2)CC1`, the results for the Kb at Histamine H1 receptor and on Histamine H3 receptor were more than 100000 nM and 17.4 nM, respectively.
For `CCCN1CCN(c2nc3cnccc3o2)CC1`, the Kb on Histamine H3 receptor is 126 nM.
For `CCCN1CCN(c2ncc(CCN(C)CCCCCc3ccccc3)s2)CC1`, the Kb at Histamine H3 receptor was 56.2 nM.
Take `CCCN1CCN(c2ncc(CCN(C)C)s2)CC1`: the Kb on Histamine H1 receptor is more than 100000 nM; on Histamine H3 receptor, 16.6 nM.
For `CCCN1CCN(c2ncc(CCNC)s2)CC1`, on Histamine H3 receptor, the Kb was 63.1 nM.
Turning to `CCCCCN(C)CCc1cnc(N2CCN(CCC)CC2)s1`, the Kb at Histamine H3 receptor was 89.1 nM.
Consider `CCCN1CCN(c2nc3ccccc3s2)CC1`, for which, on Histamine H3 receptor, the Kb is 69.2 nM.
For `CCCN1CCN(c2ncc(CCN)s2)CC1`, the Kb on Histamine H3 receptor was 64.6 nM.
Turning to `CCCN1CCN(c2nc3cnccc3[nH]2)CC1`, the Kb at Histamine H3 receptor was 56.2 nM.
As to `CCCN1CCN(c2ncc(CCN(C)CCCc3ccccc3)s2)CC1`, the values for the Kb on Histamine H1 receptor and on Histamine H3 receptor were more than 100000 nM and 5.37 nM, respectively.
For `C=CCN1CCN(c2nc3ccccc3s2)CC1`, the Kb at Histamine H3 receptor was 79.4 nM.
Still for that read-out and setting: under `CCCN1CCN(c2ncc(CCNC=O)s2)CC1` stands 117 nM.
